This note sets out measurements from ChEMBL document CHEMBL4819050, “Discovery of a novel series of guanidinebenzoates as gut-restricted enteropeptidase and trypsin dual inhibitors for the treatment of metabolic syndrome” (Bioorg Med Chem Lett, 2021).

Structures are written as SMILES.

A word on the Papp A→B: it is the apparent permeability from the apical to the basolateral side of a cell layer. As usually defined, the Cmax is the peak of the concentration-time curve. For orientation: clearance means a measure of how efficiently the substance is removed, as volume per time. As usually defined, the AUC(0-t) is exposure summed from dosing to a finite time, without extrapolation to infinity. Usually bioavailability stands for dose-corrected exposure relative to a reference, in per cent.

The target in series [1] is Enteropeptidase (Homo sapiens) (UniProt P98073). Description: Inhibition of full length recombinant human EP expressed in CHO cells assessed as protease activity using […] as substrate at 1 uM by fluorescence assay relative to control. Details: scale not given: the % may be the effect or the level left.
The species entered for series [2] is Bos taurus. Description: Inhibition of bovine trypsin assessed as protease activity using D-CHA-AR-AMC as substrate at 0.1 uM by fluorescence assay relative to control. Details: scale not given: the % may be the effect or the level left.
Series [3] concerns the target Enteropeptidase (Homo sapiens) (UniProt P98073). Description: Inhibition of full length recombinant human EP expressed in CHO cells assessed as protease activity using […] as substrate at 0.1 uM by fluorescence assay relative to control. Details: scale not given: the % may be the effect or the level left.
Series [4] shares this target. Description: Inhibition of full length recombinant human EP expressed in CHO cells assessed as protease activity using […] as substrate at 10 uM by fluorescence assay relative to control. Details: scale not given: the % may be the effect or the level left.
For series [5], the species on record is Bos taurus. Description: Inhibition of bovine trypsin assessed as protease activity using D-CHA-AR-AMC as substrate at 1 uM by fluorescence assay relative to control. Details: scale not given: the % may be the effect or the level left.
For series [6], the species on record is Bos taurus. Description: Inhibition of bovine trypsin assessed as ratio of Kinact/Kiapp.
Series [7] in a line: Apparent permeability from apical to basolateral side in dog MDCK cells. The class given is ADME, cell-based, Canis lupus familiaris.
Series [8] deals with Enteropeptidase (Homo sapiens) (UniProt P98073). Description: Inhibition of full length recombinant human EP expressed in CHO cells assessed as ratio of Kinact/Kiapp. The format is cell-based.
For series [9], the species on record is Bos taurus. Description: Inhibition of bovine trypsin assessed as protease activity using D-CHA-AR-AMC as substrate at 10 uM by fluorescence assay relative to control. Details: scale not given: the % may be the effect or the level left.
Series [10] can be described thus: In vivo inhibition of EP in diet induced obese C57BL/6J mouse assessed as increase in fecal protein content at 30 mg/kg, po measured after 24 hrs relative to control. The class given is functional.
Series [11] can be described thus: Cmax in C57BL/6J mouse at 20 mg/kg, po. The class given is ADME, organism-based. To be noted: in vivo. Details: route oral, dose 20 mg/kg.
A short description of series [12]: Volume of distribution at steady state in C57BL/6J mouse at 5 mg/kg, iv. To be noted: in vivo, read-out: Vdss. The class given is ADME, organism-based.
Series [13] is described as follows: Clearance in C57BL/6J mouse at 5 mg/kg, iv. The format is ADME, organism-based. As to conditions: in vivo.
Series [14] can be described thus: AUClast in C57BL/6J mouse at 20 mg/kg, po. Details: route oral, time 0 - last, dose 20 mg/kg. The format is ADME, organism-based. As to conditions: in vivo.
Series [15] in a line: Oral bioavailability in C57BL/6J mouse at 20 mg/kg. The class given is ADME, organism-based. To be noted: in vivo.

Sequence of Enteropeptidase (Homo sapiens) (P98073 2-784 limits assumed): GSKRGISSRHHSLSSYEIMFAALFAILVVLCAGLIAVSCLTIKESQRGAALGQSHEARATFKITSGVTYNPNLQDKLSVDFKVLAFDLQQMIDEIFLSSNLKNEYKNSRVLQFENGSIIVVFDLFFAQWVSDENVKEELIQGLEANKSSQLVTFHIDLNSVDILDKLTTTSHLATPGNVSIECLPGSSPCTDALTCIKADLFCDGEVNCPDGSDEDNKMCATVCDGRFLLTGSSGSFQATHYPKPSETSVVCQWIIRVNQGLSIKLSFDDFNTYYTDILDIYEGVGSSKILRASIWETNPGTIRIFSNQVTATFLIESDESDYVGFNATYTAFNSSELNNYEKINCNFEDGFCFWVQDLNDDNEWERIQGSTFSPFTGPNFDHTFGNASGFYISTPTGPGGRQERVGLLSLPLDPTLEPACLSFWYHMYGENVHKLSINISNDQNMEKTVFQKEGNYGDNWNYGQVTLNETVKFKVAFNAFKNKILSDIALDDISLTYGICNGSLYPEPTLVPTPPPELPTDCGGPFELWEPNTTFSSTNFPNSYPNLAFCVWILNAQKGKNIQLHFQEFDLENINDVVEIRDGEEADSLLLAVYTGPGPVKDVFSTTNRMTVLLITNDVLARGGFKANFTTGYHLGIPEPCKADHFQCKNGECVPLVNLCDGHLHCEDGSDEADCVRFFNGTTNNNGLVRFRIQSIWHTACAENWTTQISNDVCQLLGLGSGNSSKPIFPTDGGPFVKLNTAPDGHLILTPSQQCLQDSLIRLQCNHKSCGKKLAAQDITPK
Sequence of Enteropeptidase (Homo sapiens) (P98073 785-1019 limits assumed): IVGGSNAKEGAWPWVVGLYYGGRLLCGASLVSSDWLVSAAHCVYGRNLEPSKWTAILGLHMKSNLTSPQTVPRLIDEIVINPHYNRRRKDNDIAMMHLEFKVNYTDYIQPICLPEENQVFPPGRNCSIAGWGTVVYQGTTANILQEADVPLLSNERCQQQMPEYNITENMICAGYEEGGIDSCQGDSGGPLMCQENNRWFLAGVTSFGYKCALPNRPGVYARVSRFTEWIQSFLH

Take `N=C(N)Nc1ccc(C(=O)Oc2ccc(CC(=O)O)n3ccnc23)cc1`: the Activity in series [1] was 100%; in the series listed under Bos taurus [2], 96.3%; in series [3] it was 101%; in series [4] it was 100%; in the series listed under Bos taurus [5], 101%; in the series listed under Bos taurus [9], 101%. The figures for the Ratio (in the series filed under Bos taurus [6]; in series [8]) were 111000 M⁻¹ s⁻¹ and 210000 M⁻¹ s⁻¹, respectively. For the same compound, the Papp A→B in [7] turned out to be 14.8 nm/s.

For `N=C(N)Nc1ccc(C(=O)Oc2ccc(CC(=O)N[C@@H](CC(=O)O)C(=O)O)n3ncnc23)cc1`, the Activity in series [1] was found to be 101%; in the series listed under Bos taurus [2] it was 98.3%; in series [3], 48.3%; in series [4] it was 101%; in the series filed under Bos taurus [5], 100%; in the series listed under Bos taurus [9], 100%. In addition, in [10], the “fold change (FC)” value was determined as 2.4. For the same compound, the Papp A→B in series [7] is 5.6 nm/s.

Consider `N=C(N)Nc1ccc(C(=O)Oc2ccc(CC(=O)N[C@@H](CC(=O)O)C(=O)O)n3ccnc23)cc1`, for which the Activity in series [1] turned out to be 100%; in the series listed under Bos taurus [2] it was 99.3%; in series [3], 81.2%; in [4], 100%; in the series listed under Bos taurus [5] it was 100%; in the series listed under Bos taurus [9] it was 100%. Besides, the Papp A→B in series [7] amounted to 7.5 nm/s.

In the case of `N=C(N)Nc1ccc(C(=O)Oc2ccc(CC(=O)N(CC(=O)O)CC(=O)O)n3ncnc23)cc1`, the Activity in series [1] came out at 72.9%; in the series listed under Bos taurus [2] it was 89.6%; in series [3], 20.9%; in series [4], 101%; in the series filed under Bos taurus [5], 99.9%; in the series filed under Bos taurus [9], 100%. Moreover, the “fold change (FC)” value in [10] was found to be 1.5. The Papp A→B in series [7] was determined as 12.6 nm/s.

For `N=C(N)Nc1ccc(C(=O)Oc2ccc(CC(=O)O)n3ncnc23)cc1F`, the Activity was 100% in [1]; 87.6% in the series filed under Bos taurus [2]; 96.8% in series [3]; 100% in series [4]; 100% in the series listed under Bos taurus [5]; 100% in the series listed under Bos taurus [9]. The Ratio in the series filed under Bos taurus [6] was 69700 M⁻¹ s⁻¹; in series [8] it was 72800 M⁻¹ s⁻¹.

With `N=C(N)Nc1ccc(C(=O)Oc2ccc(CC(=O)NCC(=O)O)n3ncnc23)cc1`, the Activity stood at 101% in series [1]; 99.7% in the series listed under Bos taurus [2]; 48.1% in [3]; 100% in series [4]; 100% in the series listed under Bos taurus [5]; 100% in the series listed under Bos taurus [9]. The Papp A→B in series [7] stood at 10.3 nm/s.

With `N=C(N)Nc1ccc(C(=O)Oc2ccc(CC(=O)O)n3ncnc23)cc1`, the Activity in series [1] turned out to be 100%; in the series filed under Bos taurus [2], 97.2%; in series [3], 97.8%; in series [4], 100%; in the series listed under Bos taurus [5] it was 100%; in the series filed under Bos taurus [9], 100%. Further, the Cmax in [11] came out at 0.043 µg/mL. The Vd in series [12] worked out at 3.68 L/kg. The compound also came in with a clearance in series [13] of 11.5 L/h/kg. Besides, the “fold change (FC)” value in series [10] is 2.4. The values for the Ratio (in the series listed under Bos taurus [6]; in [8]) were 159000 M⁻¹ s⁻¹ and 130000 M⁻¹ s⁻¹, respectively. The compound also had an AUC(0-t) in series [14] of 0.027 µg·h/mL. In [7], the Papp A→B came to 15.3 nm/s. For the same compound, the bioavailability in series [15] is 1.6%.

Take `N=C(N)Nc1ccc(C(=O)Oc2ccc(CCC(=O)O)n3ccnc23)cc1`: the Activity in [1] stood at 95.1%; in the series filed under Bos taurus [2] it was 61%; in [3], 27.6%; in series [4] it was 100%; in the series listed under Bos taurus [5], 100%; in the series filed under Bos taurus [9], 100%. Further, in [8], the Ratio worked out at 24400 M⁻¹ s⁻¹.

`N=C(N)Nc1ccc(C(=O)Oc2cc(CCC(=O)O)cn3ncnc23)cc1`: the Activity was 103% in [1]; 99.2% in the series filed under Bos taurus [2]; 45.2% in series [3]; 101% in series [4]; 100% in the series filed under Bos taurus [5]; 100% in the series filed under Bos taurus [9]. In addition, the Papp A→B in series [7] stood at 11.2 nm/s.

With `CS(=O)(=O)NC(=O)Cc1ccc(OC(=O)c2ccc(NC(=N)N)cc2)c2ncnn12`, the Activity in series [1] turned out to be 100%; in the series listed under Bos taurus [2], 98.8%; in series [3], 101%; in series [4], 100%; in the series listed under Bos taurus [5] it was 100%; in the series filed under Bos taurus [9], 99.9%. Besides, the Ratio came to 163000 M⁻¹ s⁻¹ in the series listed under Bos taurus [6] and 181000 M⁻¹ s⁻¹ in series [8]. In addition, the Papp A→B in [7] came out at 5.1 nm/s.

In the case of `C#CCOCCOCC#Cc1ccc(CC(=O)O)n2ncnc12`, the Activity in [1] worked out at 98.5%; in the series filed under Bos taurus [2] it was 52.9%; in series [3] it was 63%; in [4] it was 99.8%; in the series filed under Bos taurus [5] it was 99.6%; in the series filed under Bos taurus [9] it was 100%. In addition, the Ratio was 59400 M⁻¹ s⁻¹ in the series filed under Bos taurus [6] and 52800 M⁻¹ s⁻¹ in series [8].

Take `N=C(N)Nc1ccc(C(=O)Oc2ccc(CC(=O)NC(CC(=O)O)(CC(=O)O)CC(=O)O)n3ncnc23)cc1`: the Activity is 100% in series [1]; 94.1% in the series filed under Bos taurus [2]; 37.8% in [3]; 100% in series [4]; 100% in the series listed under Bos taurus [5]; 100% in the series listed under Bos taurus [9]. Further, the “fold change (FC)” value in [10] worked out at 1.7. The Papp A→B in series [7] amounted to 10.9 nm/s.
